{"source": "PubChem BioAssay AID608", "about": "(Sanford-Burnham Center for Chemical Genomics, 2007)", "note": "Active and inactive are the calls of the source. No rule for the calls is given here.", "data": [{"target": "Peptidyl-prolyl cis-trans isomerase FKBP1A (Homo sapiens) (UniProt P62942)", "sequence (P62942 whole entry, looked up)": "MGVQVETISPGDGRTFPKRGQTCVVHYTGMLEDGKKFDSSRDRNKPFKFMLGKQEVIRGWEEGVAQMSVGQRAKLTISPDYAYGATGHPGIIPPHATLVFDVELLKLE", "experiment": "FKBP12 binders, biophysical, NMR detection (AID 608)", "conditions": "NMR binding, purified FKBP12", "values": [{"smiles": "C/C(=C\\CO)CC[C@H](C)CCC[C@H](C)CCCC(C)C", "Kd": "> 4 mM (inactive)"}, {"smiles": "C#CCCCCCCCCCCCC(O)CC(O)COC(C)=O", "note": "(stereo not given)", "Kd": "> 4 mM (inactive)"}, {"smiles": "COC(=O)c1c(C)c2c(c(C)c1O)OC(=O)c1c(C)c(Cl)c(O)c(Cl)c1O2", "Kd": "> 4 mM (inactive)"}, {"smiles": "Cc1ccc2cccc(OC(=O)N3CCCC3)c2n1", "Kd": "> 4 mM (inactive)"}, {"smiles": "Cc1ccc(OCC(=O)N2CCOCC2)c(C)c1", "Kd": "inactive"}, {"smiles": "Cc1nc(-c2cc(CO)no2)cs1", "Kd": "> 4 mM (inactive)"}, {"smiles": "O=c1[nH]c2c(c(=O)n1C1CCCCC1)CCC2", "Kd": "> 4 mM (inactive)"}, {"smiles": "CC(C)=CCC/C(C)=C/CC/C(C)=C/CC/C(C)=C/CC/C(C)=C/CC/C(C)=C/CC/C(C)=C/CC/C(C)=C/CC/C(C)=C/CO", "Kd": "> 4 mM (inactive)"}, {"smiles": "CC(=O)c1cc2c(s1)SCC(=O)N2", "Kd": "> 4 mM (inactive)"}, {"smiles": "O=C(O)c1cn(-c2ccccc2)nc1-c1ccncc1", "Kd": "> 4 mM (inactive)"}, {"smiles": "CCn1c(C)c(C(C)=O)c(N2CCN(C)CC2)nc1=S", "Kd": "> 4 mM (inactive)"}, {"smiles": "COc1cc(C(C)=O)cc(OC)c1O", "Kd": "> 4 mM (inactive)"}, {"smiles": "COc1cc(NC(=O)c2ccccc2)c(C)cc1N", "Kd": "> 4 mM (inactive)"}, {"smiles": "Cc1sc2nc3n(c(=O)c2c1C)CCCS3", "Kd": "> 4 mM (inactive)"}, {"smiles": "COc1c2c(cc3cc[n+](C)cc13)OCO2", "Kd": "> 4 mM (inactive)"}, {"smiles": "CC(C)n1nnc2cc(C(=O)O)ccc21", "Kd": "> 4 mM (inactive)"}, {"smiles": "Cc1cc2cc3c(C)cc(=O)oc3c(C)c2o1", "Kd": "> 4 mM (inactive)"}, {"smiles": "COc1cccc(OC)c1C(=O)N1CCOCC1", "Kd": "> 4 mM (inactive)"}, {"smiles": "Fc1cccc(F)c1CN1CCN(c2ncccn2)CC1", "Kd": "> 4 mM (inactive)"}, {"smiles": "Nc1ncnc2c1ncn2C1C[C@H](O)[C@@H](CO)O1", "note": "(stereo not given in full)", "Kd": "> 4 mM (inactive)"}, {"smiles": "CC1(C)Cc2c(C#N)c(N)n(-c3ccccc3)c(=O)c2CO1", "Kd": "> 4 mM (inactive)"}, {"smiles": "CC(=O)Nc1ccn(Cc2c(F)cccc2Cl)n1", "Kd": "> 4 mM (inactive)"}, {"smiles": "COc1cc(CNC(=O)CCCC/C=C/C(C)C)ccc1O", "Kd": "> 4 mM (inactive)"}, {"smiles": "CC(=O)O[C@@H]1CC2C(C)(C)[C@H](O)CC[C@]2(C)C2CC[C@@]3(C)[C@H](c4ccoc4)OC(=O)C4OC43[C@@]21C", "note": "(stereo not given in full)", "Kd": "> 4 mM (inactive)"}, {"smiles": "CSc1nnc2[nH]c(=O)cc(N)n12", "Kd": "> 4 mM (inactive)"}, {"smiles": "NCc1csc2ccccc12", "Kd": "> 4 mM (inactive)"}, {"smiles": "Cc1nnc(N2CCN(c3ccccc3)CC2)[nH]c1=O", "Kd": "> 4 mM (inactive)"}, {"smiles": "N#CCSc1nc(-c2ccccc2)cs1", "Kd": "> 4 mM (inactive)"}, {"smiles": "O=C1COc2ccccc2C(=O)N1", "Kd": "> 4 mM (inactive)"}, {"smiles": "O=c1c(O)c(-c2ccc(O)c(O)c2)oc2cc(O)ccc12", "Kd": "> 4 mM (inactive)"}, {"smiles": "O=C(Nc1ccc2c(c1)OCCO2)c1c(F)cccc1F", "Kd": "> 4 mM (inactive)"}, {"smiles": "C[C@@H]1C(=O)O[C@H]2[C@H]1CC[C@@]1(C)C=CC(=O)[C@@]3(C)O[C@@]213", "Kd": "> 4 mM (inactive)"}, {"smiles": "Cc1ccc(NS(=O)(=O)c2ccc(OCC(=O)N3CCOCC3)cc2)cc1", "Kd": "inactive"}, {"smiles": "CC(=O)c1c(C)nc(-c2ccc(Cl)cc2Cl)n1O", "Kd": "> 4 mM (inactive)"}, {"smiles": "COC(=O)CSc1nc(N)cc(=O)[nH]1", "Kd": "> 4 mM (inactive)"}, {"smiles": "c1ccc2[nH]c(CCn3cncn3)nc2c1", "Kd": "> 4 mM (inactive)"}, {"smiles": "Cc1nccn1CCC(=O)O", "Kd": "> 4 mM (inactive)"}, {"smiles": "COc1ccccc1NC(=O)c1cc[n+]([O-])cc1", "Kd": "> 4 mM (inactive)"}, {"smiles": "CN(c1ccccc1C(=O)N1CCCC1)S(C)(=O)=O", "Kd": "> 4 mM (inactive)"}, {"smiles": "O=C1COc2cc(O)ccc21", "Kd": "> 4 mM (inactive)"}, {"smiles": "COC(=O)c1cc(-c2c(C)nn(-c3ccccc3)c2C)n[nH]1", "Kd": "> 4 mM (inactive)"}, {"smiles": "CC(=O)NCc1nc2ccccc2[nH]1", "Kd": "> 4 mM (inactive)"}, {"smiles": "CNC(=O)CC1Sc2ccccc2NC1=O", "note": "(stereo not given)", "Kd": "> 4 mM (inactive)"}, {"smiles": "CC(=O)Nc1ccccc1OCC(N)=O", "Kd": "> 4 mM (inactive)"}, {"smiles": "COC(=O)Nc1nc2c(s1)CCCC2", "Kd": "> 4 mM (inactive)"}, {"smiles": "NNC(=O)c1ccccc1-n1cccc1", "Kd": "> 4 mM (inactive)"}, {"smiles": "O=C(O)c1ccc2ccccc2n1", "Kd": "> 4 mM (inactive)"}, {"smiles": "C=C1C2CC[C@@]3(C)[C@H](c4ccoc4)OC(=O)C[C@]13O[C@H]1CC(=O)C(C)(C)[C@H](C(O)C(=O)OC)[C@@]21C", "note": "(stereo not given in full)", "Kd": "> 4 mM (inactive)"}, {"smiles": "N#Cc1c[nH]n2c(=O)cc(Cc3ccccc3)nc12", "Kd": "> 4 mM (inactive)"}, {"smiles": "COc1cccc(O)c1O", "Kd": "> 4 mM (inactive)"}, {"smiles": "O=C(Nc1ccc2c(c1)OCO2)c1cccs1", "Kd": "> 4 mM (inactive)"}, {"smiles": "O=C(O)C1CC(=O)N(Cc2ccco2)C1", "note": "(stereo not given)", "Kd": "> 4 mM (inactive)"}, {"smiles": "Cn1cnnc1SCC(=O)Nc1ccccc1", "Kd": "> 4 mM (inactive)"}, {"smiles": "NC(=O)c1cc(Cl)c(C(N)=O)cc1Cl", "Kd": "> 4 mM (inactive)"}, {"smiles": "CNCc1ccco1", "Kd": "> 4 mM (inactive)"}, {"smiles": "Cc1cc(C(=O)NCc2ccco2)cs1", "Kd": "> 4 mM (inactive)"}, {"smiles": "O=S1(=O)CCC2CC=CCC21", "note": "(stereo not given)", "Kd": "> 4 mM (inactive)"}, {"smiles": "CCOc1ccc(C)cc1S(=O)(=O)n1ccnc1", "Kd": "> 4 mM (inactive)"}, {"smiles": "O=S(=O)(NCc1ccco1)c1cccc2cccnc12", "Kd": "> 4 mM (inactive)"}, {"smiles": "COc1ccc(C)cc1S(N)(=O)=O", "Kd": "> 4 mM (inactive)"}]}]}
